Test results taken from article PMC10857906, “PROTAC-mediated NR4A1 degradation as a novel strategy for cancer immunotherapy” (The Journal of Experimental Medicine, 2024).

Key:
[1] = test system: splenic B cells; experiment: B cell proliferation assay (splenic B cells, B16F10 lysate, Cell Trace Violet); assay type: cell-based, mouse; settings: WT B cells with B16F10 lysates, 250 or 500 nM, 24 h
Procedure: B cells were isolated from the spleen by using EasySep Mouse B cell Isolation Kit (19854; STEMCELL) and cultured in RPMI supplemented with […] non-essential amino acids (11140050; Thermo Fisher Scientific), 1 mM sodium pyruvate (11360070; Thermo Fisher Scientific), 1 mM Glutamax, 10 mM HEPES (15630080; Thermo Fisher Scientific), 0.1% 2-mercaptoethanol (21985023; Thermo Fisher Scientific), 10% FBS (F2442; Sigma-Aldrich) and 100 U/ml penicillin, and 100 µg/ml streptomycin (P4333; Sigma-Aldrich). B cells were stained with 5 nM CellTrace Violet Cell (C34557; Thermo Fisher Scientific) for 8 min in a 37°C water bath. B cells were plated at a concentration of 5 × 10^5 cells per 200 μl in round-bottom 96-well plates treated with 0.1% B16F10 melanoma cell lysis or 10 µg/ml goat anti-mouse IgM F(ab′)2 (115-006-020; Jackson ImmunoResearch). B cells were treated with NR-V04 or DMSO for 24 h and collected for flow cytometry analysis.
(§1) Mouse tumors were excised and ∼200 mg of tumor tissue was enzymatically and mechanically digested using the mouse Tumor Dissociation Kit (Miltenyi Biotec) to obtain a single-cell suspension. […] Flow cytometry was performed on a three laser Cytek Aurora Cytometer (Cytek Biosciences) and analyzed using FlowJo software (BD Biosciences). […]

[2] = test system: OT-1 CD8^+ Texh cells; experiment: T cell exhaustion in vitro, mouse OT-1 CD8^+ T cells; assay type: cell-based; settings: 500 nM, 48 h
Procedure: We conducted experiments involving the isolations and treatments of CD8^+ T cells from both OT-1 mice (C57BL/6-Tg(TcraTcrb)1100Mjb/J; Jackson Laboratories) and T cells from human PBMCs. CD8^+ T cells were isolated from OT-1 mice using the EasySep Mouse CD8 T Cell Isolation Kit, followed by daily treatment with 10 ng/ml ovalbumin (257–264) (S7951-1MG; Sigma-Aldrich) for specified durations. After 3 days of ovalbumin treatment, OT-1 CD8^+ T cells were activated, and after 7 days of treatment, they reached a state of exhaustion. Human T cells were isolated from PBMCs using the EasySep Human CD3 Positive Selection Kit II (17851; STEMCELL) and cultured with Dynabeads (Cell/Dynabeads: 1:1, A56992; Thermo Fisher Scientific) for 3 days to induce activation and for 7 days to induce exhaustion. Both mouse and human T cells received a treatment of 500 nM NR-V04 2 days prior to harvesting. To characterize the T cell subtypes, we employed specific flow cytometry antibodies and conducted flow cytometry analysis.
as §1

With `CC1=C(O)C(=O)C=C2C1=CC=C1[C@@]2(C)CC[C@@]2(C)[C@@H]3C[C@](C)(C(=O)NCCOCCOCCOCCOCC(=O)N[C@H](C(=O)N4C[C@H](O)C[C@H]4C(=O)N[C@@H](C)c4ccc(-c5scnc5C)cc4)C(C)(C)C)CC[C@]3(C)CC[C@]12C` [NR-V04] the B cell proliferation [1] was “significantly increased B cell proliferation”, the “NR4A1 in B cells” value [1] was “led to NR4A1 degradation in B cells” and the “CD8^+ Texh cells (PD1^+Tim3^+)” value [2] was “significant reduction in CD8^+ Texh cells”.
